Measurements published in patent US12447156B2, “Treating progressive familial intrahepatic cholestasis (PFIC) with IBAT inhibitors” (ALBIREO AB, priority 2020, dated 2025).

Experiment: Water content and water uptake of crystal modification 1 at different relative humidity
Assay type: physicochemical

With CCCCC1(CCCC)CN(c2ccccc2)c2cc(SC)c(OCC(=O)N[C@@H](C(=O)N[C@@H](CC)C(=O)O)c3ccc(O)cc3)cc2S(=O)(=O)N1 [crystal modification 1] the “water content of crystal” value (about 30% relative humidity, based on total crystal weight) was “about 3.5 % (w/w)”, the hygroscopicity (between about 30 and about 70% RH) was “relatively low hygroscopicity” and the “additional water taken up” value (humidity increased up to 95% RH, fully reversible) was 1.5 % (w/w).
